Legend:
[1] = Respiratory rate determination; assay type: in vivo, mice; details: CIAC001 20 mg/kg i.p.; THC 10 mg/kg i.p.
Procedure: Mice were intraperitoneally injected with 20 mg/kg CIAC001 or 10 mg/kg THC once daily. After 1 h, the mice were anesthetized with isoflurane by a small animal anesthesia machine (R500IE, RWD Life Science Co) on day 2 and day 5. The respiratory rate of mice was recorded three times within 20 s. The weights of mice were recorded every day.

[2] = Y-maze test of short-term memory; assay type: in vivo, mice; details: CIAC001 20 mg/kg i.p.; THC 10 mg/kg i.p.
Procedure: Mice were tested for short-term memory using a Y-maze task. Briefly, mice were placed into the Y-maze for 10 min once daily to habituate the apparatus for two consecutive days. After daily habituation, the mice were then treated with CIAC001 (20 mg/kg) or THC (10 mg/kg). On the 3rd day, mice were pretreated with CIAC001 or THC 45 min before the Y-maze test. Next, the “new arm” was blocked, and mice had 5 min to freely explore two arms (the “start arm” and the “old arm”, FIG. 8F). Mice were then removed from the Y-maze and placed into the cages for 2 min. During the test phase, mice were allowed to freely explore all three arms for 2 min, and the time spent in each arm was recorded and analyzed using the Noldus analyzing software. To eliminate olfactory interference, the Y-maze was wiped off with 70% alcohol after each test.

CCCCCc1cc(O)c2c(c1)OC(C)(C)[C@@H]1CCC(C)=C[C@@H]21 [THC, reference compound]
respiratory rate [1]: Respiratory depression was found | time spent on the new arm (Y maze) [2]: spent significantly less time on the new arm
